# Tested on: protein deposits (i.e., lysozyme) from Group IV lenses
# Experiment: In vitro cleaning efficacy: removal of lysozyme deposits from soiled contact lenses
# Procedure: The formulations shown in Table 1 below were tested to evaluate the ability of the multifunctional surfactants described above to remove protein deposits (i.e., lysozyme) from Group IV lenses. The cleaning performance was compared to conventional cleaning agents. The test procedures are described below, and the cleaning results are set forth at the bottom of Table 1.
# The materials and methods utilized in the evaluation were as follows: 1.311 g of monobasic sodium phosphate (monohydrate), 5.74 g of dibasic sodium phosphate (anhydrous), and 9.0 g of sodium chloride were dissolved in deionized water and the volume was brought to 1000 mL with deionized water after completely dissolving the solutes and adjusting pH (if needed). The final concentrations of sodium phosphate and sodium chloride were 0.05 M and 0.9 w/v %, respectively. The final pH was 7.4.
# A 1.0-mg/mL lysozyme solution was prepared by dissolving 500 mg of lysozyme in 500-mL of phosphate buffered saline.
# A lens extraction solution was prepared by mixing 1.0 mL of trifluoroacetic acid with 500-mL of acetonitrile and 500 mL of deionized water. The pH of the solution ranged from 1.5 to 2.0.
# Each lens was immersed with 5 mL of lysozyme solution in a Wheaton glass sample vial. The vial was closed with a plastic snap cap and incubated in a constant temperature water bath at 37° C. for 24 hours. After incubation, the deposited lens was removed from the vial and rinsed by dipping into three consecutive beakers containing 50 mL of deionized water to remove any excess of the deposition solution. The lens was then blotted gently with a laboratory towel (Kaydry EX-L, from Kimberly-Clark). These lenses were used as a soiled lenses for the evaluation of cleaning efficacy of the test solutions.
# The lens was immersed in a Wheaton glass sample vial containing 5 mL of UNISOL® 4 saline solution. The vial was closed with a plastic snap cap held secure with a metal clasp to prevent the cap from popping off during the thermal treatment. […]
# Each soiled lens was soaked and shaken with 5 mL of the test solution in a scintillation vial at room temperature for 12 hours. […] The clean lenses were then subjected to the extraction procedure described below, and the amount of lysozyme present in the soaking solutions was measured with a fluorescence spectrophotometer. […]
# A quantitative determination of the amount of lysozyme in the lens extract solution and lens soaking solutions was carried out by a fluorescence spectrophotometer interfaced with an autosampler and a computer. The fluorescence intensity of a 2 mL aliquot from each sample solution was measured by setting the excitation/emission wavelength at 280 nm/346 nm with excitation/emission slits of 2.5 nm/10 nm, respectively, and the sensitivity of the photomultiplier was set at 950 volts. […]
structure (smiles),measurement,setting,value
"CCCCCCCCCCCC(=O)N(CCN(CC(=O)[O-])CC(=O)[O-])CC(=O)[O-].[Na+].[Na+].[Na+] [LED3A, lauroyl ethylene diaminetriacetate]",cleaning efficacy,LED3A 0.03% in borate buffered vehicle containing 0.6% sodium citrate,29.5%
same,cleaning efficacy,LED3A 0.075% in borate buffered vehicle containing 0.6% sodium citrate,47.5%
same,cleaning efficacy,LED3A 0.1% in borate buffered vehicle containing 0.6% sodium citrate,56.0%
same,cleaning efficacy,LED3A 0.2% in borate buffered vehicle containing 0.6% sodium citrate,60.2%

# Reference: patent US6995123B2, “Use of multifunctional surface active agents to clean contact lenses” (Alcon, Inc., priority 2002, dated 2006)
